Experimental data: patent publication US8916607B2, “Use of piperphentonamine or salts thereof in manufacture of medicaments for treating brain diseases” (Guangzhou Municipal Zhongwei Biotechnology Limited Company, priority 2009, dated 2014)

Key:
[1] = tested on: cerebral hemorrhage in rats induced by collagenase; experiment: ICH model induced by collagenase: histopathological observation; type: in vivo, Wistar rats; conditions: large dose (2 mg/kg) pretreatment
Method: Influence of piperphentonamine hydrochloride on pathological morphology of cerebral hemorrhage in rats was observed. Each group animals were selected randomly, anesthetized deeply by chloral hydrate at predetermined time point, decollated and the brain were taken out rapidly, then, the brain tissue slices with hematoma (about 5 mm) were cut, and put into 10% formaldehyde solution immediately, fixed for 24 h followed by dehydration by graded ethanol, transparentizing by xylene, immersing in paraffin, embedding, slicing (5 μm), HE staining and sealing. The pathological changes area and the pathological change of the adjacent brain tissue were observed by optical microscope.

[2] = tested on: cerebral ischemia/reperfusion injury in mice; experiment: focal cerebral ischemia reperfusion injury model in mice (suture method), TTC infarction area; type: in vivo; conditions: ischemia 2 h, reperfusion 24 h
Method: Focal cerebral ischemia reperfusion injury model is made in mice by using suture method, being ischemia for 2 h, then reperfusing for 24 h, and it proves that piperphentonamine hydrochloride has protective effect on ischemia-reperfusion cerebral injury.
Mouse is anesthetized by injecting 10% chloral hydrate (350 mg/kg) in intraperitoneal, being intravenously administered 1 mg/kg, 5 mg/kg piperphentonamine hydrochloride or 20 u/kg coenzyme A, (COA), making the cerebral artery ischemia like as the method of example 6. Pulling out nylon thread from the internal carotid artery after the operation in 2 hours, until the end of the nylon thread is at bifurcation of the common carotid artery. Reperfusing for 24 hours. Except for not inserting a thread, the rest of steps for the false operation group are same as the above-mentioned. After reperfusion for 24 h, decapitating and taking the brain of survived mice, rapidly putting in −20° C. freezer for 5 min, then removing, quickly cutting coronal slices of 2.0 mm thickness from forward to back on the operating table, putting the slices in phosphate buffer solution with 1% TTC immediately, incubating for 30 min in avoiding light at room temperature. Flip brain slices to make them touch staining solution uniformly every 10 minute, and scanning and observing the dyeing results.
The local cerebral ischemia model of mice was established by using thread bolt method, to validate that piperphentonamine acetate has protective effect on experimental cerebral ischemia animal.

[3] = tested on: ischemia reperfusion injury of mouse brain; experiment: SOD activity, MDA and GSH content of brain homogenate after cerebral ischemia reperfusion; type: in vivo, Kunming mice
Method: Ischemia reperfusion method in the mouse and the administration method are the same as above. After ischemia reperfusion is completed, executing by decollating, removing the brain and making homogenate by phosphate buffer in 0° C., determining the activity of SOD by pyrogallol autoxidation method, the content of MDA by TBA method, and the content of GSH by DTNB method, quantitate the protein by Coomassie brilliant blue method.

[4] = tested on: cerebral hemorrhage in rats induced by collagenase; experiment: ICH model induced by collagenase: NO in brain tissue by nitrate reductase method; type: in vivo, Wistar rats
Source text: Rats in each group were anesthetized by chloral hydrate, decollated rapidly and the brain take were taken out. The brain tissue around the hole was cut and procured, weighed precisely, and made into a 10% tissue homogenate using a glass homogenizer in an ice bath environment with physiological saline as homogenized medium, the supernatant of which was taken to be determined the content of NO by nitrate reductase method.

[5] = tested on: learning and memory dysfunction caused by cerebral ischemia reperfusion; experiment: platform-diving experiment in dementia model of mice caused by ischemia reperfusion; type: in vivo, Kunming mice; conditions: for memory achievement Error times / Learning achievement Error times: in 5 min; for memory achievement Error times: test-retest period; for Learning achievement Error times: training period
Method: The animals were randomly divided into five groups: sham operation group, model group, piperphentonamine hydrochloride 1 mg/kg group, 2 mg/kg group, 4 mg/kg group. There were 10 mice in each group.
After the mice were fasted for 16 hours, we established the dementia model of mice caused by ischemia reperfusion. The preparatory steps were proceeded as follows: anesthetizing mouse by sodium pentobarbital (60 mg/kg, ip), supinely immobilizing on a board, incising on the midmost of neck, isolating bilateral common carotid artery, and threading with zero-size silk thread. Afterwards, operation steps were proceeded as follows: blocking the blood flow of bilateral common carotid artery for 10 min, then resuming the blood flow for 10 min, repeating the blocking/resuming steps for 3 times, and suturing the skin. The mice were put in normal feeding conditions. Bilateral common carotid artery is only isolated for sham operation group.
After ischemia reperfusion for 10 min, the drugs are injected on tail vein, after ischemia reperfusion for 24 h, administering for the second time. Carrying on the platform-diving experiment after administering for half an hour. The mice under test are put into the platform-diving instrument, adapting the environment for 3 min, and then the bottom plate being electrified, observing the time when the mouse jump onto the high platform (reaction time) and the times which the mouse jump down from the high platform and are shocked by electricity in 5 min (the number of errors in the training period). After 24 h, administering again, then carry on the second platform-diving experiment to measure the function of obtaining memory. Putting the mouse on the platform of experimental instrument, electrifying the bottom plate at the same time, recording the time when the mouse jump down from the high platform (latency) and the times which shock by electricity in 5 min (the times of error in test-retest period).

Q: How did the “pathological morphology of cerebral hemorrhage” value [1] turn out when CN(CCC(=O)/C=C/c1ccc(O)cc1)CCc1ccc2c(c1)OCO2.Cl [piperphentonamine hydrochloride, Piperphentonamine hydrochloride] was run?
A: Its value is “tissue edema and inflammatory cell infiltration after cerebral hemorrhage were reduce obviously”.

Q: And the “The percentage of infarction area occupied the entire coronal plane (%)” value ([2]; 1 mg/kg iv)?
A: Its value is 19.78 ± 2.61 %.

Q: And the “The percentage of infarction area occupied the entire coronal plane (%)” value ([2]; 5 mg/kg iv)?
A: Its value is 16.55 ± 2.32 %.

Q: And the GSH ([3]; 20 mg/kg)?
A: Its GSH is 10.34 ± 3.17 mg/g pr.

Q: And the MDA ([3]; 20 mg/kg)?
A: Its MDA is 4.48 ± 1.03 nmol/g pr.

Q: And the SOD ([3]; 20 mg/kg)?
A: The SOD was 0.34 ± 0.02 Ku/g pr.

Q: And the GSH ([3]; 40 mg/kg)?
A: Its GSH is 13.1 ± 4.34 mg/g pr.

Q: And the MDA ([3]; 40 mg/kg)?
A: The MDA was 3.74 ± 0.67 nmol/g pr.

Q: And the SOD ([3]; 40 mg/kg)?
A: The SOD was 0.37 ± 0.02 Ku/g pr.

Q: And the GSH ([3]; 80 mg/kg)?
A: Its GSH is 14.77 ± 4.61 mg/g pr.

Q: And the MDA ([3]; 80 mg/kg)?
A: The MDA was 3.53 ± 0.76 nmol/g pr.

Q: And the SOD ([3]; 80 mg/kg)?
A: Its SOD is 0.42 ± 0.04 Ku/g pr.

Q: And the NO ([4]; 2 mg/kg, ICH rat brain tissue)?
A: Its NO is 1.65 ± 0.03^Δ μmol/g pro.

Q: What about the “NO content in brain tissue” value ([4]; high and low dose groups (2, 0.5 mg/kg)) of the same compound?
A: Its value is “could decrease the NO content in brain tissue”.

Q: And the “Learning achievement Reaction time s” value ([5]; 1 mg/kg tail vein)?
A: Its value is 16.53 ± 11.75 s.

Q: What about the “memory achievement latency s” value ([5]; 1 mg/kg tail vein) of the same compound?
A: The value was 249.84 ± 133.55 s.

Q: And the “memory achievement Error times” value ([5]; 1 mg/kg tail vein)?
A: The value was 1.31 ± 0.58.

Q: What about the “Learning achievement Error times” value ([5]; 1 mg/kg tail vein) of the same compound?
A: The value was 5.37 ± 3.63.

Q: And the “Learning achievement Reaction time s” value ([5]; 2 mg/kg tail vein)?
A: The value was 13.34 ± 8.85 s.

Q: And the “memory achievement latency s” value ([5]; 2 mg/kg tail vein)?
A: Its value is 308.13 ± 97.73 s.

Q: And the “memory achievement Error times” value ([5]; 2 mg/kg tail vein)?
A: The value was 0.73 ± 0.58.

Q: And the “Learning achievement Error times” value ([5]; 2 mg/kg tail vein)?
A: Its value is 5.08 ± 3.34.

Q: What about the “Learning achievement Reaction time s” value ([5]; 4 mg/kg tail vein) of the same compound?
A: The value was 7.11 ± 4.06 s.

Q: And the “memory achievement latency s” value ([5]; 4 mg/kg tail vein)?
A: Its value is 352.79 ± 141.5 s.

Q: What about the “memory achievement Error times” value ([5]; 4 mg/kg tail vein) of the same compound?
A: Its value is 0.58 ± 1.45.

Q: What about the “Learning achievement Error times” value ([5]; 4 mg/kg tail vein) of the same compound?
A: The value was 4.5 ± 3.05.
